Reference: US4299822A, “N-Trifluoroacetyladriamycin-14-O-hemiglutarate and -hemiadipate and therapeutic compositions containing same” (Sidney Farber Cancer Institute, Inc., priority 1980, dated 1981)

Columns and labels:
[1] = cited from earlier work
murine L1210 leukemia = assay: in vivo antitumor activity against L1210 leukemia, ip days 1-4; set-up: species or system mouse (BDF1 male mice); settings: 10% Emulphor EL-620, 10% ethanol, 80% isotonic saline
Procedure: (§1) The toxicity and therapeutic effectiveness of the new compounds and active agents of the present invention are shown by in vitro assays and by in vivo evaluations in mice. The in vitro assays measure the growth inhibiting activity of the materials against the CCRF-CEM cell line in culture. The cell line was derived from the peripheral blood of a child with lymphoblastic leukemia as described by Foley et al., Cancer, Volume 18, page 522 et seq. (1965), and the assays were carried out by the procedure of Foley and Lazarus, Biochem. Pharmacol., Volume 16, pages 659 et seq. (1967), the results being reported in terms of the dose in micromoles per liter required to inhibit growth of the cultures by 50% relative to control cultures to which no drug had been added (ID50). The in vivo evaluations were made by preparing a 0.2 to 0.7% by weight solution of the active agent in a formulation consisting of 10% by volume of each polyethoxylated castor oil and ethanol in saline and injecting the dosage intraperitoneally. The evaluations were made of the antitumor activity against the murine P388 and murine L1210 leukemias in BDF1 male mice according to standard National Cancer Institute protocols as set forth by Geran et al., Cancer Chemotherap. Rep., Part 3, Volume 3, pages 1 et seq. (1972) , except that a qd 1-4 schedule was used in place of qd 1-9 in order to conserve materials.
(§2) Optimal dosage was determined by testing doses which were at several multiples of 10 milligrams/kilogram of body weight. Some effectiveness can be observed at dosages ranging from 30 to 70 milligrams/kilogram of body weight, depending upon the particular compound employed.
All compounds were administered intraperitoneally; in tests (1) and (2), the compounds were in 10% Emulphor EL-620, 10% ethanol, and 80% isotonic saline. In test (3) the compound was in aqueous buffer containing monobasic potassium phosphate and sodium hydroxide (0.05 M), pH 7.40: […]

CCRF-CEM cells = assay: growth inhibition of CCRF-CEM cell line in culture; format: cell-based; settings: Homo sapiens; CCRF-CEM cells, in vitro; read-out: ID50 (dose required to inhibit growth of the cultures by 50% relative to control)
Excerpt: The in vitro assays measure the growth inhibiting activity of the materials against the CCRF-CEM cell line in culture. […] The in vivo evaluations were made by preparing a 0.2 to 0.7% by weight solution of the active agent in a formulation consisting of 10% by volume of each polyethoxylated castor oil and ethanol in saline and injecting the dosage intraperitoneally. The evaluations were made of the antitumor activity against the murine P388 and murine L1210 leukemias in BDF1 male mice according to standard National Cancer Institute protocols as set forth by Geran et al., Cancer Chemotherap. Rep., Part 3, Volume 3, pages 1 et seq.

[2] = pH 7.4
[3] = cited from earlier work; remark: listed apart in the source
murine P388 leukemia = assay: in vivo antitumor activity against murine P388 leukemia, ip qd 1-4; set-up: species or system mouse (BDF1 male mice); settings: 10% Emulphor EL-620, 10% ethanol, 80% saline
Procedure: as §1, §2
The following table summarizes the in vivo antitumor activity of the same compounds as those in Table I, evaluated against murine P388 leukemia as described above. All compounds were administered intraperitoneally, adriamycin in clinical formulation (1 part adriamycin plus 5 parts lactose, in 0.9% saline), the other compounds in 10% Emulphor EL-620, 10% ethanol, 80% isotonic saline.

[4] = animals and human clinical tests

CCCCC(=O)OCC(=O)C1(O)Cc2c(O)c3c(c(O)c2C(OC2CC(NC(=O)C(F)(F)F)C(O)C(C)O2)C1)C(=O)c1c(OC)cccc1C3=O (stereo not shown) [N-Trifluoroacetyladriamycin-14-valerate]
water solubility [1]: essentially water-insoluble
% ILS (percent median increase in life span relative to untreated controls, calculated as of day 50) (murine L1210 leukemia; 50.0 mg/kg/d × 4 ip): > 456%
No. alive on d 50 (murine L1210 leukemia; 50.0 mg/kg/d × 4 ip): 5/7
% ILS (percent median increase in life span relative to untreated controls, calculated as of day 50) (murine L1210 leukemia; 60.0 mg/kg/d × 4 ip): > 456%
No. alive on d 50 (murine L1210 leukemia; 60.0 mg/kg/d × 4 ip): 6/7
IC50 (CCRF-CEM cells): 240 nM
solubility in water (in words) [2]: a few micrograms
cardiotoxicity relative to parent drug [3, 4]: significantly less cardiotoxic than the parent drug
toxicity in general relative to parent drug [3, 4]: less toxic in general
therapeutic effect relative to adriamycin and daunomycin ([3]; human, in vivo): therapeutically superior to adriamycin and to daunomycin
% ILS (percent increase in life span relative to untreated controls) (murine P388 leukemia; each dose 20.0 mg/kg ip): 281%
No. alive on d 30 (murine P388 leukemia; each dose 20.0 mg/kg ip): 5/7
No. alive on d 60 (murine P388 leukemia; each dose 20.0 mg/kg ip): 3/7
Survival, Median day of death (range) (murine P388 leukemia; each dose 20.0 mg/kg ip): 42.0 (21-42) day
No. alive on d 30 (murine P388 leukemia; each dose 30.0 mg/kg ip): 4/7
No. alive on d 60 (murine P388 leukemia; each dose 30.0 mg/kg ip): 4/7
Survival, day of death (range only, no median) (murine P388 leukemia; each dose 30.0 mg/kg ip): 21 to 26 days
No. alive on d 30 (murine P388 leukemia; each dose 40.0 mg/kg ip): 6/7
No. alive on d 60 (murine P388 leukemia; each dose 40.0 mg/kg ip): 6/7
Survival, day of death (range only, no median) (murine P388 leukemia; each dose 40.0 mg/kg ip): 30,71 day
% ILS (percent increase in life span relative to untreated controls) (murine P388 leukemia; each dose 50.0 mg/kg ip): 763%
No. alive on d 30 (murine P388 leukemia; each dose 50.0 mg/kg ip): 5/7
No. alive on d 60 (murine P388 leukemia; each dose 50.0 mg/kg ip): 5/7
Survival, Median day of death (range) (murine P388 leukemia; each dose 50.0 mg/kg ip): 95.0 (24-95) day
% ILS (percent increase in life span relative to untreated controls) (murine P388 leukemia; each dose 60.0 mg/kg ip): 718%
No. alive on d 30 (murine P388 leukemia; each dose 60.0 mg/kg ip): 5/7
No. alive on d 60 (murine P388 leukemia; each dose 60.0 mg/kg ip): 5/7
Survival, Median day of death (range) (murine P388 leukemia; each dose 60.0 mg/kg ip): 90.0 (9-90) day
